Key:
Glucocorticoid receptor [1] = target: T1, Glucocorticoid receptor (Homo sapiens, UniProt P04150); type: functional
T1 sequence (P04150 whole entry): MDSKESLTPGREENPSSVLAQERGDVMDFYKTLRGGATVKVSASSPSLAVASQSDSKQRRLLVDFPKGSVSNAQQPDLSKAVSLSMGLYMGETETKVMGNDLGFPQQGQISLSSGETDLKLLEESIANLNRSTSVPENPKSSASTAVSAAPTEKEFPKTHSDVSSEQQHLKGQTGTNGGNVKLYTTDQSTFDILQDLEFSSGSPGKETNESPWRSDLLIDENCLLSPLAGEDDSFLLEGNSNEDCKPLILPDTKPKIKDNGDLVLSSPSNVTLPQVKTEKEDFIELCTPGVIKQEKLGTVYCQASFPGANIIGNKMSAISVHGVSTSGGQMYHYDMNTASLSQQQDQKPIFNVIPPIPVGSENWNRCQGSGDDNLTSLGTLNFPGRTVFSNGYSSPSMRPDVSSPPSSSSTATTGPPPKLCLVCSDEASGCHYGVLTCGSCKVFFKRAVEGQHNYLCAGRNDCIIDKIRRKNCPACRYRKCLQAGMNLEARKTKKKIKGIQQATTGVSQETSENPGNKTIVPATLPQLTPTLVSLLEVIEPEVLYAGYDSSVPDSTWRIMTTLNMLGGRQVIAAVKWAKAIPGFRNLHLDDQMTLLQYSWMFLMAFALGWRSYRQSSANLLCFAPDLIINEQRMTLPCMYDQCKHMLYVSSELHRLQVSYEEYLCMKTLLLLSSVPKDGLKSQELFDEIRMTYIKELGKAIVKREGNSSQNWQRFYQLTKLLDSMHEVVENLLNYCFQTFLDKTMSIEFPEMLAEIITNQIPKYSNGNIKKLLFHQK
Description: Agonist activity at GR by GRE activation assay

Glucocorticoid receptor [2] = target: T1, Glucocorticoid receptor; type: functional; remark: listed apart in the source
Description: Antagonist activity at GR assessed as inhibition of dexamethasone-induced GRE activation

Glucocorticoid receptor [3] = target: T1, Glucocorticoid receptor; type: functional; remark: listed apart in the source
Description: Activity at GR assessed as repression of TNFalpha and IL 1-beta induced E-selectin response

Glucocorticoid receptor [4] = target: T1, Glucocorticoid receptor
Description: Displacement of radiolabeled Dexamethasone from glucocorticoid receptor

Glucocorticoid receptor [5] = target: T1, Glucocorticoid receptor; remark: listed apart in the source
Description: Agonist activity at GR by GRE activation assay relative to Dexamethasone

Progesterone receptor = target: T2, Progesterone receptor (Homo sapiens, UniProt P06401); experiment: Binding affinity at PR
T2 sequence (P06401 whole entry): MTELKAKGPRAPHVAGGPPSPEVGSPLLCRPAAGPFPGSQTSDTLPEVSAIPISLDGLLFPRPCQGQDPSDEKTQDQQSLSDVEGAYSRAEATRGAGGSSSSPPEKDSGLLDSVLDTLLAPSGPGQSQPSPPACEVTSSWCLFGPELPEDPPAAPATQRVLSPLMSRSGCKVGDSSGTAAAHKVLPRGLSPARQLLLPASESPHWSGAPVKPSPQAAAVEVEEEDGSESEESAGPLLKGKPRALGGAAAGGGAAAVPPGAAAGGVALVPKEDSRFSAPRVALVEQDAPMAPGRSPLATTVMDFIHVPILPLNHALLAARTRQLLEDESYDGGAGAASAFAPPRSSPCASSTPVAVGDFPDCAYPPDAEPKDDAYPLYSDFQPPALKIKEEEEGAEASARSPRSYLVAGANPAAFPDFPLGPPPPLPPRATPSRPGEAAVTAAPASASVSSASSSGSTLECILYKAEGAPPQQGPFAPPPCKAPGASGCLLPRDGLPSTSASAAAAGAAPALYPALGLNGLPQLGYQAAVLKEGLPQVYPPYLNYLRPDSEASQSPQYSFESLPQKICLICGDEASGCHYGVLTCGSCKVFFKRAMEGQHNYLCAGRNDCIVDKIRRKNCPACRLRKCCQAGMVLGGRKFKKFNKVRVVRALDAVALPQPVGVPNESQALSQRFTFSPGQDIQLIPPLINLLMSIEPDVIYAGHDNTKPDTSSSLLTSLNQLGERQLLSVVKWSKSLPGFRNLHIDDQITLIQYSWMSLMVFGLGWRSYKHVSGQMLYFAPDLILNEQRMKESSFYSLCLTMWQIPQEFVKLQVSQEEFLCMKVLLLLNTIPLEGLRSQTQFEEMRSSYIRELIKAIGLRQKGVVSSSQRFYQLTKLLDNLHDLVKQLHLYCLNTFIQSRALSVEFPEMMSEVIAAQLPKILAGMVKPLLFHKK

Androgen receptor = target: T3, Androgen receptor (Homo sapiens, UniProt P10275); experiment: Binding affinity at AR
T3 sequence (P10275 whole entry): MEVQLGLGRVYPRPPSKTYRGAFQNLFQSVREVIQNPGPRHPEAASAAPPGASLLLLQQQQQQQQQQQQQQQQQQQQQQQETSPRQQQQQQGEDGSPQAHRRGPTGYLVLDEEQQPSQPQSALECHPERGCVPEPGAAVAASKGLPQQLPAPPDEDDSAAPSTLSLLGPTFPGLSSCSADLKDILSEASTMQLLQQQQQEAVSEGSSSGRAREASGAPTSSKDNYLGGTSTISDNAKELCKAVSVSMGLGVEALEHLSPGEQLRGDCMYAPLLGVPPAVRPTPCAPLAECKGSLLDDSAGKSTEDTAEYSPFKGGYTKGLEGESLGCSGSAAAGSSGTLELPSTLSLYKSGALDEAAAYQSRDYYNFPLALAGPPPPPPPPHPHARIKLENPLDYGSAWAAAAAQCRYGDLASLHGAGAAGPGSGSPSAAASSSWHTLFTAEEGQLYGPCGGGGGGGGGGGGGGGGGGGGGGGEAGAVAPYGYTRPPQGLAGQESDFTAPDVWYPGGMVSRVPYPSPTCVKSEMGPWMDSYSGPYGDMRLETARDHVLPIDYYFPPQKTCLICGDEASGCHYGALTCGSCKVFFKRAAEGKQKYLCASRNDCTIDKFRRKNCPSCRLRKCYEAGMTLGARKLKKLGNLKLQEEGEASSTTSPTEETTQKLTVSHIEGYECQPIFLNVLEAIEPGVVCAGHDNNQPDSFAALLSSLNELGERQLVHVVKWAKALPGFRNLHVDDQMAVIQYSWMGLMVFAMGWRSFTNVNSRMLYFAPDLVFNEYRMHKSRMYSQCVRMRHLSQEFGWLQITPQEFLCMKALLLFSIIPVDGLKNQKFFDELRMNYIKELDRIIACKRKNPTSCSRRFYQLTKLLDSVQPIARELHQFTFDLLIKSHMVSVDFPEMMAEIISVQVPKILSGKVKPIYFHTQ

Row | EC50 (Glucocorticoid receptor [1]) | IC50 (Glucocorticoid receptor [2]) | IC50 (Glucocorticoid receptor [3]) | Ki (Glucocorticoid receptor [4]) | EC50 (Glucocorticoid receptor [5]) | EC50 (Glucocorticoid receptor [2]) | Ki (Progesterone receptor) | Ki (Androgen receptor) | SMILES
1 | > 1000 nM | 0.7 nM | 3.6 nM | 1.5 nM | > 1000 nM | – | – | – | COc1c(O)ccc2c1-c1ccc3c(c1/C(=C/c1cccc(-c4cccnc4)c1)O2)C(C)=CC(C)(C)N3
2 | > 1000 nM | – | 91 nM | 4.3 nM | – | > 1000 nM | – | – | COc1c(O)ccc2c1-c1ccc3c(c1/C(=C/c1ccc(OC(F)(F)F)cc1)O2)C(C)=CC(C)(C)N3
3 | > 1000 nM | 2.5 nM | 4.1 nM | 2.7 nM | > 1000 nM | – | – | – | COc1c(O)ccc2c1-c1ccc3c(c1/C(=C/c1cccc(C(F)(F)F)c1)O2)C(C)=CC(C)(C)N3
4 | 0.6 nM | 1.3 nM | 1.4 nM | 0.8 nM | – | – | – | – | COc1c(O)ccc2c1-c1ccc3c(c1/C(=C/c1ccccc1F)O2)C(C)=CC(C)(C)N3
5 | 1.1 nM | 0.4 nM | 1 nM | 1.1 nM | – | – | – | – | COc1c(O)ccc2c1-c1ccc3c(c1/C(=C/c1ccc(O)cc1)O2)C(C)=CC(C)(C)N3
6 | 43 nM | > 1000 nM | 12 nM | 1.7 nM | – | – | – | – | COc1c(O)ccc2c1-c1ccc3c(c1/C(=C/c1ccc(Cl)cc1)O2)C(C)=CC(C)(C)N3
7 | – | 2.6 nM | 15 nM | 2.6 nM | – | – | – | – | COc1c(O)ccc2c1-c1ccc3c(c1/C(=C/c1cccc(C(F)(F)F)c1C)O2)C(C)=CC(C)(C)N3
8 | 133 nM | – | 10 nM | 2.7 nM | – | > 1000 nM | – | – | COc1ccc(/C=C2\Oc3ccc(O)c(OC)c3-c3ccc4c(c32)C(C)=CC(C)(C)N4)cc1
9 | > 1000 nM | 0.5 nM | 1.4 nM | 3.1 nM | > 1000 nM | – | – | – | COc1c(O)ccc2c1-c1ccc3c(c1/C(=C/c1cccc(-c4ccsc4)c1)O2)C(C)=CC(C)(C)N3
10 | 18 nM | 24 nM | 18 nM | 15 nM | – | – | – | – | COc1c(O)ccc2c1-c1ccc3c(c1/C(=C/c1ccccc1Cl)O2)C(C)=CC(C)(C)N3
11 | 4.5 nM | 3.6 nM | 4.4 nM | 6.7 nM | – | – | – | – | COc1c(O)ccc2c1-c1ccc3c(c1/C(=C/c1ccccc1-c1ccccc1)O2)C(C)=CC(C)(C)N3
12 | – | – | – | – | – | – | 400 nM | 570 nM | COc1c(O)ccc2c1-c1ccc3c(c1/C(=C/c1cccc(C)c1)O2)C(C)=CC(C)(C)N3
13 | 3.4 nM | 0.4 nM | 1 nM | 1.7 nM | – | – | – | – | COc1c(O)ccc2c1-c1ccc3c(c1/C(=C/c1ccccc1C)O2)C(C)=CC(C)(C)N3
14 | 0.7 nM | 1.1 nM | 4.9 nM | 1.6 nM | – | – | – | – | COc1c(O)ccc2c1-c1ccc3c(c1/C(=C/c1cccc(C)n1)O2)C(C)=CC(C)(C)N3
15 | > 1000 nM | 1.9 nM | 74 nM | 4.6 nM | > 1000 nM | – | – | – | COc1c(O)ccc2c1-c1ccc3c(c1/C(=C/c1cccc(Oc4ccccc4)c1)O2)C(C)=CC(C)(C)N3
16 | 455 nM | – | – | 2.9 nM | – | > 1000 nM | – | – | COc1c(O)ccc2c1-c1ccc3c(c1/C(=C/c1ccc(C(C)C)cc1)O2)C(C)=CC(C)(C)N3
17 | 38 nM | 12 nM | 15 nM | 1.9 nM | – | – | – | – | COc1c(O)ccc2c1-c1ccc3c(c1/C(=C/c1ccc(C)cc1)O2)C(C)=CC(C)(C)N3
18 | > 1000 nM | 1.9 nM | 4.7 nM | 4.1 nM | > 1000 nM | – | – | – | COc1c(O)ccc2c1-c1ccc3c(c1/C(=C/c1cccc(OC(F)(F)F)c1)O2)C(C)=CC(C)(C)N3
19 | > 1000 nM | 2.3 nM | 12 nM | 7.2 nM | > 1000 nM | – | – | – | COc1c(O)ccc2c1-c1ccc3c(c1/C(=C/c1cccc(-c4ccccc4)c1)O2)C(C)=CC(C)(C)N3

Row | SMILES | EC50 (Glucocorticoid receptor [1]) | IC50 (Glucocorticoid receptor [2]) | IC50 (Glucocorticoid receptor [3]) | Ki (Glucocorticoid receptor [4]) | EC50 (Glucocorticoid receptor [5]) | EC50 (Glucocorticoid receptor [2]) | Ki (Progesterone receptor) | Ki (Androgen receptor)
20 | COc1c(O)ccc2c1-c1ccc3c(c1/C(=C/c1ccc(-c4ccccc4)cc1)O2)C(C)=CC(C)(C)N3 | 33 nM | – | 77 nM | 4.4 nM | – | > 1000 nM | – | –
21 | COc1c(O)ccc2c1-c1ccc3c(c1/C(=C/c1ccc(F)cc1S(=O)(=O)N1CCCCC1)O2)C(C)=CC(C)(C)N3 | 108 nM | 6.6 nM | 22 nM | 94 nM | – | – | – | –
22 | CCc1ccc(/C=C2\Oc3ccc(O)c(OC)c3-c3ccc4c(c32)C(C)=CC(C)(C)N4)cc1 | 207 nM | – | – | – | – | > 1000 nM | – | –

Source: ChEMBL document CHEMBL1149550, “5(Z)-benzylidene-1,2-dihydro-9-hydroxy-10-methoxy-2,2,4-trimethyl-5H-1-aza-6-oxa-chrysenes as non-steroidal glucocorticoid receptor modulators” (Bioorg Med Chem Lett, 2007)
